# Assay results reported in paper PMC9424906 (Frontiers in Pharmacology, 2022).
# Entries after “also recorded” stand apart in the source; their conditions may differ.
# Columns and labels:
# [1] = test system: SARS-CoV-2 (2019-nCoV/USA-WAl/2020); assay type: cell-based; conditions: EpiAirway 3D HAE tissue model
# in vitro = in vitro ADME, human; conditions: Sprague-Dawley (rat), CD-1 (mouse), Beagle (dog), monkey
# Method: Plasma protein binding experiments were carried out in mixed-gender human plasma, male Sprague-Dawley rat plasma, male CD-1 plasma, male Beagle dog plasma, and male Cynomolgus monkey plasma (BioIVT) using a Pierce Rapid Equilibration Dialysis (RED) device. […] Blank phosphate-buffered saline (PBS) (500 μL) was added to each corresponding receiver chamber. After 4 h of incubation (with shaking at 37°C), both sides were aliquoted, and matrix was normalized. Samples were centrifuged at 1000 g for 10 min after adding two volumes of ACN with IS. Supernatants were diluted 1:1 with water and analyzed with LC-MS/MS.
# Plasma Protein binding was calculated as follows:
# % Bound = [(PARR in Donor–PARR in Receiver)/(PARR in Donor)] × 100.
# PARR = peak area response ratio to internal standard, including applicable dilution factors.
# [2] = Pharmacokinetics in Sprague Dawley rats; assay type: in vivo; conditions: male, rat; for Vd / clearance / AUC(0-inf) / Cmax / Tmax / bioavailability: in vivo; for Vd / clearance: iv; for AUC(0-inf) / Cmax / Tmax / bioavailability / half-life: po; for half-life: plasma, Rat
# Method: (§1) Adult male C57BL/6 mice and Sprague Dawley rats were purchased from Charles River Laboratory (Wilmington, MA). PK studies for mice and rats were conducted at NIH animal facility (Bethesda, MD). In-life dog and monkey PK studies were conducted at Absorption System (San Diego, CA) and Frontage Labs (Concord, OH), respectively. Dogs and monkeys were fasted overnight prior to dose administrations. All experimental procedures were reviewed and approved by the Animal Care and Use Committee (ACUC) of the NIH Division of Veterinary Resources (DVR) or CRO labs for in-life studies.
# Male Sprague–Dawley rats (n = 3 or 4 per treatment group, ∼ 343–375 g) were dosed in IV and PO dosing groups: 1 and 5 mg/kg IV, and 10, 30 and 100 mg/kg PO, respectively. Double cannulated rats (one catheter for IV dosing and another one for sampling) were used. Plasma samples were collected from jugular vein over 24 h. In bile duct cannulated (BDC) rat group, a single IV dose of 2 mg/kg was administered to three rats. Rat urine and bile samples were collected for the pre-dose, 0–4 h, 4–8 h, and 8–24 h time periods for BDC rats.
# (§2) Blood samples from all groups and species were collected in K2EDTA tubes and stored on wet ice pending processing. Blood was centrifuged at 2200 g at 4°C for 10 min to isolate plasma. All samples were stored at -80°C until analysis.
# (§3) Phoenix WinNonlin, version 8.1 (Certara, St. Louis, MO), was used to perform PK analysis with the non-compartmental approach (Models 200 and 201 for PO and IV datasets). The area under the plasma concentration vs. time curve (AUC) was calculated using the linear trapezoidal method. The terminal rate constant (λ) was obtained from the slope of at least three data points of the apparent terminal phase of the log-linear plasma concentration vs. time curve when available. AUC0–∞ was estimated as the sum of the AUC0–t (where t is the time of the last measurable concentration) and Ct/λ. The apparent terminal half-life (t½) was calculated as 0.693/λ. Bioavailability (F) was calculated using ratios of dose normalized AUC (AUC/Dose) obtained from PO and IV PK studies.
# [3] = Pharmacokinetics in Cynomolgus monkeys; assay type: in vivo; conditions: male, cynomolgus monkey
# Method: as §1
# The dosing volumes were 2 mL/kg for IV and 5 mL/kg for PO. Blood samples were obtained from each monkey up to 48 h after IV and PO administration. Urine samples were collected over 48 h for IV group.
# as §2, §3
# physchem = conditions: for solubility thermodynamic: thermodynamic from solid
# MATE1 = conditions: cited from earlier work
compound,measurement,setting,value
N#C[C@@]1(c2ccc3c(N)ncnn23)O[C@H](CO)[C@@H](O)[C@H]1O [GS-441524],Potency on viral titer (TCID50) at 24 h,[1]; 24 h,lower potency than EIDD-2801
same,Viral titer (TCID50),[1]; 24 h and 96 h after infection,significantly inhibited the viral infection; also recorded: reduced viral load
same,"fraction unbound at 4 h, 10 µM","in vitro; both (human, mixed-gender), male (animals), human",0.62 to 0.78
same,"fraction unbound at 4 h, 10 µM","in vitro; male, plasma",0.62 to 0.64
same,Vd,[2]; 1 mg/kg,2.6 L/kg
same,clearance,[2]; 1 mg/kg,31 mL/min/kg
same,Vd,[2]; 5 mg/kg,2.2 ± 0.3 L/kg
same,clearance,[2]; 5 mg/kg,25 ± 1.6 mL/min/kg
same,AUC(0-inf),[2]; 10 mg/kg,2170 ng·h/mL
same,Cmax,[2]; 10 mg/kg,193 ± 57 ng/mL
same,Tmax,[2]; 10 mg/kg,3.8 ± 2.4 h
same,bioavailability,[2]; 10 mg/kg,33 ± 9.8%
same,AUC(0-inf),[2]; 30 mg/kg,4220 ng·h/mL
same,Cmax,[2]; 30 mg/kg,326 ± 77 ng/mL
same,Tmax,[2]; 30 mg/kg,3.8 ± 2.4 h
same,bioavailability,[2]; 30 mg/kg,21 ± 3.8%
same,AUC(0-inf),[2]; 100 mg/kg,9560 ng·h/mL
same,Cmax,[2]; 100 mg/kg,825 ± 91 ng/mL
same,Tmax,[2]; 100 mg/kg,2.3 ± 1.3 h
same,bioavailability,[2]; 100 mg/kg,15 ± 3.2%
same,half-life,"[2]; 10 mg/kg, PO 10 mg/kg, read-out: t1/2 (converted)",3.4 ± 0.2 h
same,half-life,"[2]; 30 mg/kg, PO 30 mg/kg, read-out: t1/2 (converted)",3.4 ± 0.2 h
same,half-life,"[2]; 100 mg/kg, PO 100 mg/kg, read-out: t1/2 (converted)",4.2 ± 1.8 h
same,half-life,"[2]; 100 mg/kg, PO 10, 30 and 100 mg/kg, read-out: Half-life (t1/2)",3.4 to 4.2 h
same,Vd,"[3]; in vivo, iv, 2 mg/kg",1.1 ± 0.04 L/kg
same,clearance,"[3]; in vivo, iv, 2 mg/kg",9.5 ± 1 mL/min/kg
same,AUC(0-inf),"[3]; in vivo, po, 5 mg/kg",734 ± 138 ng·h/mL
same,Cmax,"[3]; in vivo, po, 5 mg/kg",59.4 ± 18.1 ng/mL
same,Tmax,"[3]; in vivo, po, 5 mg/kg",2 h
same,bioavailability,"[3]; in vivo, po, 5 mg/kg",8.3 ± 1.6%
same,half-life,"[3]; plasma, Monkey, PO 5 mg/kg",7.7 ± 1.4 h
same,solubility thermodynamic,"physchem; pH 1.6, simulated gastric fluid",> 1000 µg/mL
same,solubility thermodynamic,"physchem; pH 2, aqueous buffer",> 1000 µg/mL
same,solubility,physchem; pH 5,35 to 52 µg/mL
same,solubility thermodynamic,"physchem; pH 5, aqueous buffer",52 µg/mL
same,solubility thermodynamic,"physchem; pH 5.8, fessif",52 µg/mL
same,solubility thermodynamic,"physchem; pH 6.5, fassif",35 µg/mL
same,solubility thermodynamic,"physchem; pH 7.4, aqueous buffer",47 µg/mL
same,Substrate of MATE1,MATE1,not a substrate
